According to patent US11806342B2, “Diiodohydroxyquinoline for the treatment of clostridium difficile infection” (Purdue Research Foundation, priority 2019, dated 2023):
Converted amounts (≈) assume the structure as drawn.

Tests used:
Assay type in all cases: cell-based, Clostridium difficile
[1] = system: C. difficile ATCC 1801; assay: MIC and MBC, broth microdilution; conditions: Clostridioides difficile, ATCC1801, C. difficile ATCC 1801; for MBC: read-out: MBC; for MIC: read-out: MIC
Method: (§1) Antibacterial activity of Diiodohydroxyquinoline against a wide panel of Clostridium difficile strains. […] MIC50 and MIC90 are the minimum concentration of each agent that inhibited growth of 50% and 90% of the tested isolates, respectively. The minimum bactericidal concentration (MBC) of these drugs was tested by plating 5 μL from wells with no growth onto BHIS agar plates. The MBC was categorized as the lowest concentration that reduced bacterial growth by 99.9% MIC50 and MIC90 are the minimum concentration of each agent that inhibited the growth of 50% and 90% of the tested isolates, respectively. The minimum bactericidal concentration (MBC) of these drugs was tested by plating 5 μL from wells with no growth onto BHIS agar plates. The MBC was categorized as the lowest concentration that reduced bacterial growth by 99.9% [29-31].

[2] = system: C. difficile ATCC 43255; assay: MIC and MBC, broth microdilution; conditions: Clostridioides difficile, ATCC43255, C. difficile ATCC 43255; for MBC: read-out: MBC; for MIC: read-out: MIC
Method: as §1

[3] = system: C. difficile HM-745; assay: MIC and MBC, broth microdilution; conditions: Clostridioides difficile, HM745, C. difficile HM-745; for MBC: read-out: MBC; for MIC: read-out: MIC
Method: as §1

[4] = system: C. difficile I10; assay: MIC and MBC, broth microdilution; conditions: Clostridioides difficile, C. difficile I10; for MBC: read-out: MBC; for MIC: read-out: MIC
Method: as §1

[5] = system: C. difficile I11; assay: MIC and MBC, broth microdilution; conditions: Clostridioides difficile, C. difficile I11; for MBC: read-out: MBC; for MIC: read-out: MIC
Method: as §1

[6] = system: C. difficile I13; assay: MIC and MBC, broth microdilution; conditions: Clostridioides difficile, C. difficile I13; for MBC: read-out: MBC; for MIC: read-out: MIC
Method: as §1

[7] = system: C. difficile I6; assay: MIC and MBC, broth microdilution; conditions: Clostridioides difficile, C. difficile I6; for MBC: read-out: MBC; for MIC: read-out: MIC
Method: as §1

[8] = system: C. difficile I9; assay: MIC and MBC, broth microdilution; conditions: Clostridioides difficile, C. difficile I9; for MBC: read-out: MBC; for MIC: read-out: MIC
Method: as §1

[9] = system: C. difficile NR-49278; assay: MIC and MBC, broth microdilution; conditions: Clostridioides difficile, NR49278, C. difficile NR-49278; for MBC: read-out: MBC; for MIC: read-out: MIC
Method: as §1

[10] = system: C. difficile NR-49285; assay: MIC and MBC, broth microdilution; conditions: Clostridioides difficile, NR49285, C. difficile NR-49285; for MBC: read-out: MBC; for MIC: read-out: MIC
Method: as §1

[11] = system: C. difficile NR-49288; assay: MIC and MBC, broth microdilution; conditions: Clostridioides difficile, NR49288, C. difficile NR-49288; for MBC: read-out: MBC; for MIC: read-out: MIC
Method: as §1

[12] = system: C. difficile P15; assay: MIC and MBC, broth microdilution; conditions: Clostridioides difficile, C. difficile P15; for MBC: read-out: MBC; for MIC: read-out: MIC
Method: as §1

[13] = system: C. difficile P19; assay: MIC and MBC, broth microdilution; conditions: Clostridioides difficile, C. difficile P19; for MBC: read-out: MBC; for MIC: read-out: MIC
Method: as §1

[14] = system: C. difficile P20; assay: MIC and MBC, broth microdilution; conditions: Clostridioides difficile, C. difficile P20; for MBC: read-out: MBC; for MIC: read-out: MIC
Method: as §1

[15] = system: C. difficile P30; assay: MIC and MBC, broth microdilution; conditions: Clostridioides difficile, C. difficile P30; for MBC: read-out: MBC; for MIC: read-out: MIC
Method: as §1

[16] = system: C. difficile P3; assay: MIC and MBC, broth microdilution; conditions: Clostridioides difficile, C. difficile P3; for MBC: read-out: MBC; for MIC: read-out: MIC
Method: as §1

[17] = system: C. difficile P5; assay: MIC and MBC, broth microdilution; conditions: Clostridioides difficile, C. difficile P5; for MBC: read-out: MBC; for MIC: read-out: MIC
Method: as §1

[18] = system: C. difficile P6; assay: MIC and MBC, broth microdilution; conditions: Clostridioides difficile, C. difficile P6; for MBC: read-out: MBC; for MIC: read-out: MIC
Method: as §1

[19] = system: C. difficile ATCC BAA-1870; assay: Time kill kinetics assay; conditions: C. difficile ATCC BAA-1870, 5×MIC, 37° C.
Method: (§2) Time kill kinetics assay. In order to examine the killing kinetics of DIHQ, a time kill kinetics assay was performed against Clostridium difficile ATCC BAA 1870 and C. difficile NR-49277 as described previously. […] Aliquots were collected from each treatment after 0, 4, 6, 8, 12, and 24 hours of incubation at 37° C. and subsequently serially diluted and plated for viable CFU/mL determination.

[20] = system: C. difficile NR-49277; assay: Time kill kinetics assay; conditions: C. difficile NR-49277, 5×MIC, 37° C.
Method: as §2

[21] = system: C. difficile ATCC 43255; assay: Checkerboard assay, DIHQ with metronidazole or vancomycin
Method: (§3) The fractional inhibitory concentration index (ΣFIC) was calculated for each interaction. Interactions where the ΣFIC index was ≤0.5 were categorized as synergistic (SYN).

[22] = system: C. difficile ATCC BAA-1870; assay: as above
Method: as §3

[23] = system: C. difficile I9; assay: as above
Method: as §3

[24] = DIHQ with metronidazole, C. difficile ATCC 43255
[25] = DIHQ with vancomycin, C. difficile ATCC 43255
[26] = DIHQ with metronidazole, C. difficile ATCC BAA-1870
[27] = DIHQ with vancomycin, C. difficile ATCC BAA-1870
[28] = DIHQ with metronidazole, C. difficile I9
[29] = DIHQ with vancomycin, C. difficile I9

Oc1c(I)cc(I)c2cccnc12 [DIHQ, 5,7-diiodoquinolin-8-ol]
MBC [1]: 4 mg/L (≈ 10.1 µM)
MIC [1]: 2 mg/L (≈ 5.04 µM)
MBC [2]: 0.5 mg/L (≈ 1.26 µM)
MIC [2]: 0.5 mg/L (≈ 1.26 µM)
MBC [3]: 1 mg/L (≈ 2.52 µM)
MIC [3]: 1 mg/L (≈ 2.52 µM)
MBC [4]: 1 mg/L (≈ 2.52 µM)
MIC [4]: 1 mg/L (≈ 2.52 µM)
MBC [5]: 1 mg/L (≈ 2.52 µM)
MIC [5]: 1 mg/L (≈ 2.52 µM)
MBC [6]: 2 mg/L (≈ 5.04 µM)
MIC [6]: 2 mg/L (≈ 5.04 µM)
MBC [7]: 0.5 mg/L (≈ 1.26 µM)
MIC [7]: 0.5 mg/L (≈ 1.26 µM)
MBC [8]: 0.06 mg/L (≈ 0.151 µM)
MIC [8]: 0.06 mg/L (≈ 0.151 µM)
MBC [9]: 0.5 mg/L (≈ 1.26 µM)
MIC [9]: 0.25 mg/L (≈ 0.63 µM)
MBC [10]: 1 mg/L (≈ 2.52 µM)
MIC [10]: 1 mg/L (≈ 2.52 µM)
MBC [11]: 0.5 mg/L (≈ 1.26 µM)
MIC [11]: 0.25 mg/L (≈ 0.63 µM)
MBC [12]: 1 mg/L (≈ 2.52 µM)
MIC [12]: 1 mg/L (≈ 2.52 µM)
MBC [13]: 1 mg/L (≈ 2.52 µM)
MIC [13]: 0.5 mg/L (≈ 1.26 µM)
MBC [14]: 1 mg/L (≈ 2.52 µM)
MIC [14]: 1 mg/L (≈ 2.52 µM)
MBC [15]: 0.5 mg/L (≈ 1.26 µM)
MIC [15]: 0.5 mg/L (≈ 1.26 µM)
MBC [16]: 2 mg/L (≈ 5.04 µM)
MIC [16]: 2 mg/L (≈ 5.04 µM)
MBC [17]: 4 mg/L (≈ 10.1 µM)
MIC [17]: 2 mg/L (≈ 5.04 µM)
MBC [18]: 0.5 mg/L (≈ 1.26 µM)
MIC [18]: 0.5 mg/L (≈ 1.26 µM)
time required to generate a 3-log10 reduction in CFU/mL [19]: six
time to complete eradication of the bacteria (below the detection limit, 100 CFU/mL) [19]: ≤ 24 h
time required to generate a 3-log10 reduction in CFU/mL [20]: 4 hours
time to complete eradication of the bacteria (below the detection limit, 100 CFU/mL) [20]: ≤ 6 h
MIC of DIHQ combined with metronidazole ([21]; C. difficile ATCC 43255): 0.25 mg/L
MIC of DIHQ combined with vancomycin ([21]; C. difficile ATCC 43255): 0.125 mg/L
MIC alone ([21]; C. difficile ATCC 43255, Table 4): 1 mg/L
MIC ([21]; Clostridioides difficile, ATCC43255, C. difficile ATCC 43255, Table 3, read-out: MIC alone): 1 mg/L
Interpretation [21, 24]: SYN (ΣFIC index ≤0.5 is considered synergistic (SYN))
ΣFIC Index [21, 24]: 0.375
Interpretation [21, 25]: SYN (ΣFIC index ≤0.5 is considered synergistic (SYN))
ΣFIC Index [21, 25]: 0.25
MIC of DIHQ combined with metronidazole ([22]; C. difficile ATCC BAA-1870): 0.125 mg/L
MIC of DIHQ combined with vancomycin ([22]; C. difficile ATCC BAA-1870): 0.06 mg/L
MIC alone ([22]; C. difficile ATCC BAA-1870, Table 4): 1 mg/L
MIC ([22]; Clostridioides difficile, ATCCBAA1870, C. difficile ATCC BAA-1870, Table 3, read-out: MIC alone): 1 mg/L
Interpretation [22, 26]: SYN (ΣFIC index ≤0.5 is considered synergistic (SYN))
ΣFIC Index [22, 26]: 0.25
Interpretation [22, 27]: SYN (ΣFIC index ≤0.5 is considered synergistic (SYN))
ΣFIC Index [22, 27]: 0.185
MIC of DIHQ combined with metronidazole ([23]; C. difficile I9): 0.06 mg/L
MIC of DIHQ combined with vancomycin ([23]; C. difficile I9): 0.06 mg/L
MIC alone ([23]; C. difficile I9, Table 4): 0.06 mg/L
MIC ([23]; Clostridioides difficile, C. difficile I9, Table 3, read-out: MIC alone): 0.06 mg/L
Interpretation [23, 28]: ADD (ΣFIC index >0.5 − 1.25 is considered additive (ADD))
ΣFIC Index [23, 28]: 1.125
Interpretation [23, 29]: ADD (ΣFIC index >0.5 − 1.25 is considered additive (ADD))
ΣFIC Index [23, 29]: 1.125

CCc1c(Cl)c(O)c(Cl)c(O)c1C(=O)O[C@H]1[C@H](O)[C@H](OC)[C@H](OC/C2=C\C=C\C[C@H](O)/C(C)=C/[C@H](CC)[C@@H](O[C@@H]3OC(C)(C)[C@@H](OC(=O)C(C)C)[C@H](O)[C@@H]3O)/C(C)=C/C(C)=C/C[C@@H]([C@@H](C)O)OC2=O)O[C@@H]1C [Fidaxomicin, fidaxomicin]
MBC [1]: 0.125 mg/L (≈ 0.118 µM)
MIC [1]: 0.06 mg/L (≈ 0.0567 µM)
MBC [2]: 0.015 mg/L (≈ 0.0142 µM)
MIC [2]: 0.015 mg/L (≈ 0.0142 µM)
MBC [3]: 0.125 mg/L (≈ 0.118 µM)
MIC [3]: 0.06 mg/L (≈ 0.0567 µM)
MBC [4]: 0.03 mg/L (≈ 0.0284 µM)
MIC [4]: 0.015 mg/L (≈ 0.0142 µM)
MBC [5]: 0.015 mg/L (≈ 0.0142 µM)
MIC [5]: 0.015 mg/L (≈ 0.0142 µM)
MBC [6]: 0.03 mg/L (≈ 0.0284 µM)
MIC [6]: 0.03 mg/L (≈ 0.0284 µM)
MBC [7]: 0.06 mg/L (≈ 0.0567 µM)
MIC [7]: 0.06 mg/L (≈ 0.0567 µM)
MBC [8]: 0.03 mg/L (≈ 0.0284 µM)
MIC [8]: 0.03 mg/L (≈ 0.0284 µM)
MBC [9]: 0.015 mg/L (≈ 0.0142 µM)
MIC [9]: 0.007 mg/L (≈ 0.00662 µM)
MBC [10]: 0.03 mg/L (≈ 0.0284 µM)
MIC [10]: 0.015 mg/L (≈ 0.0142 µM)
MBC [11]: 0.015 mg/L (≈ 0.0142 µM)
MIC [11]: 0.007 mg/L (≈ 0.00662 µM)
MBC [12]: 0.06 mg/L (≈ 0.0567 µM)
MIC [12]: 0.06 mg/L (≈ 0.0567 µM)
MBC [13]: 0.06 mg/L (≈ 0.0567 µM)
MIC [13]: 0.03 mg/L (≈ 0.0284 µM)
MBC [14]: 0.015 mg/L (≈ 0.0142 µM)
MIC [14]: 0.015 mg/L (≈ 0.0142 µM)
MBC [15]: 0.007 mg/L (≈ 0.00662 µM)
MIC [15]: 0.007 mg/L (≈ 0.00662 µM)
MBC [16]: 0.03 mg/L (≈ 0.0284 µM)
MIC [16]: 0.015 mg/L (≈ 0.0142 µM)
MBC [17]: 0.03 mg/L (≈ 0.0284 µM)
MIC [17]: 0.03 mg/L (≈ 0.0284 µM)
MBC [18]: 0.003 mg/L (≈ 0.00284 µM)
MIC [18]: 0.003 mg/L (≈ 0.00284 µM)
